Assay results: the supplement of paper PMC10307832

How the values were obtained:
Experiment in all cases: relative viability (nuclei count vs DMSO), 5 days (fraction); higher = more cells survive
[1] = test system: BEN
Outline: (§1)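 One day after seeding in 1536-well plates, lung cancer cell lines were dosed by pin tool. Dosing was either single-drug or a fixed anchor-drug dose plus five library-drug doses (not always all listed) in √10 steps. After 5 days, nuclei were stained in one fix-and-stain step and counted on 4× images, and relative viability is the nuclei count of treated wells over that of vehicle wells, given as the median of duplicate plates.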

[2] = test system: EKVX
Outline: as §1

[3] = test system: EMC-BAC-2
Outline: as §1

[4] = test system: EPLC-272H
Outline: as §1

[5] = test system: HCC-78
Outline: as §1

[6] = test system: HCC-827
Outline: as §1

[7] = test system: LCLC-97TM1
Outline: as §1

[8] = test system: LK-2
Outline: as §1

[9] = test system: LOU-NH91
Outline: as §1

[10] = test system: LU99A
Outline: as §1

[11] = test system: NCI-H1792
Outline: as §1

[12] = test system: NCI-H2087
Outline: as §1

[13] = test system: NCI-H2126
Outline: as §1

[14] = test system: NCI-H358
Outline: as §1

[15] = test system: NCI-H522
Outline: as §1

[16] = test system: NCI-H727
Outline: as §1

[17] = test system: SW 900
Outline: as §1

For `COCC1(CO)C(=O)C2CCN1CC2` (configuration not stated) [PRIMA-1MET] + NC(=O)Nc1cc(-c2cccc(F)c2)sc1C(=O)N[C@H]1CCCNC1 [AZD7762] (partner 0.2 µM), the relative viability ([1]; first compound 0.2 µM) was 0.733, the relative viability ([1]; first compound 0.6325 µM) was 0.603 and the relative viability ([1]; first compound 6.325 µM) was 0.653. For the same molecule, the relative viability ([1]; first compound 20 µM) was 0.652, the relative viability ([2]; first compound 0.2 µM) was 0.72 and the relative viability ([2]; first compound 2 µM) was 0.524. The relative viability ([2]; first compound 6.325 µM) was 0.748, the relative viability ([2]; first compound 20 µM) was 0.378 and the relative viability ([3]; first compound 0.2 µM) was 1.34. The relative viability ([3]; first compound 0.6325 µM) was 1.07, the relative viability ([3]; first compound 2 µM) was 0.989 and the relative viability ([3]; first compound 6.325 µM) was 1.12. The relative viability ([3]; first compound 20 µM) was 1.01, the relative viability ([4]; first compound 0.2 µM) was 0.236 and the relative viability ([4]; first compound 0.6325 µM) was 0.123. For the same molecule, the relative viability ([4]; first compound 2 µM) was 0.178, the relative viability ([4]; first compound 6.325 µM) was 0.262 and the relative viability ([4]; first compound 20 µM) was 0.147. It also gave a relative viability ([5]; first compound 0.2 µM) of 0.893, a relative viability ([5]; first compound 0.6325 µM) of 0.62 and a relative viability ([5]; first compound 2 µM) of 0.555. For the same molecule, the relative viability ([5]; first compound 6.325 µM) was 0.69, the relative viability ([5]; first compound 20 µM) was 0.174 and the relative viability ([6]; first compound 0.2 µM) was 0.206. The relative viability ([6]; first compound 0.6325 µM) was 0.224, the relative viability ([6]; first compound 2 µM) was 0.181 and the relative viability ([6]; first compound 6.325 µM) was 0.211. The relative viability ([6]; first compound 20 µM) was 0.239, the relative viability ([7]; first compound 0.2 µM) was 0.268 and the relative viability ([7]; first compound 0.6325 µM) was 0.226. The relative viability ([7]; first compound 2 µM) was 0.212, the relative viability ([7]; first compound 6.325 µM) was 0.336 and the relative viability ([7]; first compound 20 µM) was 0.166. The relative viability ([8]; first compound 0.2 µM) was 0.469, the relative viability ([8]; first compound 0.6325 µM) was 0.405 and the relative viability ([8]; first compound 2 µM) was 0.182. For the same molecule, the relative viability ([8]; first compound 6.325 µM) was 0.124, the relative viability ([8]; first compound 20 µM) was 0.0604 and the relative viability ([9]; first compound 0.2 µM) was 0.828. The relative viability ([9]; first compound 0.6325 µM) was 0.74, the relative viability ([9]; first compound 2 µM) was 0.658 and the relative viability ([9]; first compound 6.325 µM) was 0.71. For the same molecule, the relative viability ([9]; first compound 20 µM) was 0.386, the relative viability ([10]; first compound 0.2 µM) was 0.548 and the relative viability ([10]; first compound 0.6325 µM) was 0.167. It also gave a relative viability ([10]; first compound 2 µM) of 0.443, a relative viability ([10]; first compound 6.325 µM) of 0.361 and a relative viability ([10]; first compound 20 µM) of 0.0555. It also gave a relative viability ([11]; first compound 0.2 µM) of 0.569, a relative viability ([11]; first compound 6.325 µM) of 0.907 and a relative viability ([11]; first compound 20 µM) of 0.429. It also gave a relative viability ([12]; first compound 0.6325 µM) of 1.35, a relative viability ([12]; first compound 2 µM) of 1.29 and a relative viability ([12]; first compound 6.325 µM) of 1.25. The relative viability ([12]; first compound 20 µM) was 0.938, the relative viability ([13]; first compound 0.2 µM) was 1.05 and the relative viability ([13]; first compound 0.6325 µM) was 1.02. It also gave a relative viability ([13]; first compound 2 µM) of 0.975, a relative viability ([13]; first compound 6.325 µM) of 1.02 and a relative viability ([13]; first compound 20 µM) of 0.978. The relative viability ([14]; first compound 0.2 µM) was 0.592, the relative viability ([14]; first compound 2 µM) was 0.489 and the relative viability ([14]; first compound 6.325 µM) was 0.484. It also gave a relative viability ([14]; first compound 20 µM) of 0.0265, a relative viability ([15]; first compound 0.2 µM) of 0.788 and a relative viability ([15]; first compound 0.6325 µM) of 0.823. It also gave a relative viability ([15]; first compound 2 µM) of 0.838, a relative viability ([15]; first compound 6.325 µM) of 0.598 and a relative viability ([15]; first compound 20 µM) of 0.283. For the same molecule, the relative viability ([16]; first compound 0.2 µM) was 0.505, the relative viability ([16]; first compound 0.6325 µM) was 0.62 and the relative viability ([16]; first compound 6.325 µM) was 0.421. For the same molecule, the relative viability ([16]; first compound 20 µM) was 0.349, the relative viability ([17]; first compound 0.2 µM) was 0.553 and the relative viability ([17]; first compound 0.6325 µM) was 0.632. The relative viability ([17]; first compound 6.325 µM) was 0.573 and the relative viability ([17]; first compound 20 µM) was 0.101.
